Data set [1] has as its system Salmonella typhimurium: TA1535, TA1537, TA1538, TA98 and TA100. Briefly: Ames Salmonella/microsome assay, five standard strains. Type of data set: cell-based. On the set-up: unit not given here. Particulars: Ames plates, DMSO solvent. On the procedure:
(§1) This mutagenicity testing was performed using DMSO as the solvent. Six dose levels were tested in duplicate, with and without metabolic activation, in five tester strains (TA1535, TA1537, TA1538, TA98, and TA100). The tests were repeated to ensure reproducibility.
Ames test of the 2,4-di-(o-hydroxy-p-pyrrolidino phenyl) cyclobutene diylium-1,3-diolate (hydroxy pyrrolidino squarylium or OHPYRRSQ) of the present invention dye was conducted.
This compound was examined for mutagenic activity in the Ames Salmonella/microsome assay using the five standard strains of Salmonella typhimurium: TA1535, TA1537, TA1538, TA98 and TA100. All assays were performed in duplicate, both in the presence and the absence of a rat-liver metabolic activation system. DMSO was used as the solvent.
The compound was tested on two separate days at doses ranging from […]. Low-level S-9 was used in the first assay and high-level S-9 was used in the confirming assay.

The subject of data set [2] is TA98. Briefly: Ames test for mutagenicity, tester strain TA98. Type of data set: cell-based, Salmonella typhimurium. As for the experimental part:
(§2) Ames test of the prior art dye 2,4-di-(o-hydroxy-p-dimethylamino phenyl) cyclobutene diylium-1,3- diolate was then conducted. This dye is of the type shown in Example 11 of aforesaid US-A-3,824,099.
as §1

Data set [3] in a line: Ames test for mutagenicity, tester strain TA98. Type of data set: cell-based, Salmonella typhimurium. The following applies: read-out: TA98 × background. On the procedure:
as §2, §1
(In general: In the Ames test, an excess of revertant colonies over the control signals mutagenicity.)

The test system of data set [4] is TA1538. As to the kind of experiment: Ames test for mutagenicity, tester strain TA1538. Type of data set: cell-based, Salmonella typhimurium. On the procedure:
as §2, §1

Data set [5] can be described thus: Ames test for mutagenicity, tester strain TA1538. Type of data set: cell-based, Salmonella typhimurium. As for the experimental part:
as §2, §1

Where [6] appears, read: purified dye, dimethylamino phenol precursor distilled, DMSO solvent, replicate Test no./Assay no.
Setting [7] is: without purification of the dye, replicate Assay no.

Structures are written as SMILES. “And” between values parts separate entries of the source, which are not always exact repeats. Identical values can stand only once. A value given as a limit tells only on which side of the number the result lay.

Data on two compounds can be found in patent EP0172321B1, “Squarylium charge generating dye and electrophotographic photoconductor” (International Business Machines Corporation, priority 1984, dated 1986).

As for `O=C1C(=C2C=CC(=[N+]3CCCC3)C=C2O)C([O-])=C1c1ccc(N2CCCC2)cc1O` [OHPYRRSQ, 2,4-di-(o-hydroxy-p-pyrrolidinophenyl) cyclobutene diylium-1,3-diolate], the “Dose level at and above which precipitate was observed” value in data set [1] is no less than 500.

Regarding `CN(C)c1ccc(C2=C([O-])C(=C3C=CC(=[N+](C)C)C=C3O)C2=O)c(O)c1` [OHSQ, 2,4-di-(o-hydroxy-p-dimethylaminophenyl) cyclobutene diylium-1,3-diolate], the “TA98 × background” value in data set [2] (setting [6]) was 2.3 × background and 2.7 × background and 2.90 × background; in data set [2] (setting [7]), 3.3 × background. Besides, the fold induction in data set [3] (ames ta98, purified dye, dimethylamino phenol precursor distilled, DMSO solvent, replicate Test no./Assay no.) is 2.4; in data set [3] (ames ta98, without purification of the dye, replicate Assay no.) it was 2.6; in data set [5] (ames ta1538, purified dye, dimethylamino phenol precursor distilled, DMSO solvent, replicate Test no./Assay no., read-out: TA1538 × background), 2.9; in data set [5] (ames ta1538, without purification of the dye, replicate Assay no., read-out: TA1548 × background) it was 4.9. Besides, the “TA1538 × background” value in data set [4] (setting [6]) is 2.9 × background and 2.8 × background and 3.3 × background. Further, in data set [4] (setting [7]), the “TA1548 × background” value worked out at 6.8 × background.
